Laboratory results published in US20080090836A1, “Pyrazole Compounds Useful In The Treatment Of Inflammation” (priority 2004, published 2008).

Molecular target: T1, purified human 15-lipoxygenase (Homo sapiens, UniProt P16050)
T1 sequence (P16050 1-662): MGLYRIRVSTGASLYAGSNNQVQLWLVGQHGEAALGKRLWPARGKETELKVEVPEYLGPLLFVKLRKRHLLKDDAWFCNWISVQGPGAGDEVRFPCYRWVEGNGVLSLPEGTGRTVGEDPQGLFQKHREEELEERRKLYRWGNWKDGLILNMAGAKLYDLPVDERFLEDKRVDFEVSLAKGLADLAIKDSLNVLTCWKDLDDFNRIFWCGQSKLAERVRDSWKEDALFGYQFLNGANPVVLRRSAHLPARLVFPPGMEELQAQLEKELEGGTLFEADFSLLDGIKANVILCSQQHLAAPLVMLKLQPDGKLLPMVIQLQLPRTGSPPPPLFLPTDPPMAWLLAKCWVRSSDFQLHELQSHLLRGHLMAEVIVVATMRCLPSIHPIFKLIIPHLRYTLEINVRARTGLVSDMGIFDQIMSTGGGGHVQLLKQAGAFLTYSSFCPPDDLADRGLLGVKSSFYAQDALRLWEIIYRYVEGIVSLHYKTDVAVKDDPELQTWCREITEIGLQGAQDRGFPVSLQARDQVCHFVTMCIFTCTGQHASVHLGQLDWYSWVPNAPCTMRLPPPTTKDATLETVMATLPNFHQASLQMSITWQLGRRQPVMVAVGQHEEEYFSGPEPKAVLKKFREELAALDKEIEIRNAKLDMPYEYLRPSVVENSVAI
Test: 15-lipoxygenase inhibition assay (oxidation of arachidonic acid, product measured by reverse phase HPLC)
Format: biochemical
Conditions: arachidonic acid substrate, room temperature, PBS pH 7.4
Protocol: The assay employed takes advantage of the ability of lipoxygenases to oxidize polyunsaturated fatty acids, containing a 1,4-cis-pentadiene configuration, to their corresponding hydroperoxy or hydroxyl derivatives. In this particular assay, the lipoxygenase was a purified human 15-lipoxygenase and the fatty acid was arachidonic acid. The assay is performed at room temperature (20-22° C.) and the following are added to each well in a 96-well microliter plate:
a) 35 μL phosphate buffered saline (PBS) (pH 7.4);
b) inhibitor (i.e. compound) or vehicle (0.5 μl DMSO);
c) 10 μL of a 10× concentrated solution of 15-lipoxygenase in PBS. The plates are incubated for 5 minutes at room temperature;
The plate is then incubated for 10 minutes at room temperature;
e) the enzymatic reaction is terminated by the addition of 100 μl methanol; and
f) the amount of 15-hydroperoxy-eicosatetraenoic acid or 15-hydroxyeicosatetraenoic acid is measured by reverse phase HPLC.

Row | SMILES | IC50 [µM]
1 | Cc1cn(C(=O)NCCc2cccs2)nc1C(=O)Nc1ccc(F)cc1Cl [Example 4, 4-Methylpyrazole-1,3-dicarboxylic acid 3-[(2-chloro-4-fluorophenyl)-amide] 1-[(2-thien-2-ylethyl)amide]] | 3.71
2 | C=CCNC(=O)n1nc(C(=O)Nc2ccc(F)cc2Cl)cc1C [Example 33, 5-Methylpyrazole-1,3-dicarboxylic acid 1-allylamide 3-[(2-chloro-4-fluorophenyl)amide]] | 5.6
3 | CCCCOc1ccc(S(=O)(=O)n2nc(C(=O)Nc3ccc(F)cc3Cl)cc2C)cc1 [Example 50, 1-(4-Butoxy-benzenesulfonyl)-5-methylpyrazole-3-carboxylic acid (2-chloro-4-fluorophenyl)amide] | 8.33
4 | CCOC(=O)CNC(=O)n1cc(C)c(C(=O)Nc2ccc(F)cc2Cl)n1 [Example 17, {[3-(2-Chloro-4-fluorophenylcarbamoyl)-4-methylpyrazole-1-carbonyl]-amino}acetic acid ethyl ester] | 8.51
5 | COc1ccc(S(=O)(=O)n2nc(C(=O)Nc3ccc(F)cc3Cl)cc2C)cc1 [Example 51, 1-(4-Methoxy-benzenesulfonyl)-5-methylpyrazole-3-carboxylic acid (2-chloro-4-fluorophenyl)amide] | 5.87
6 | Cc1cc(C(=O)Nc2ccc(F)cc2Cl)nn1C(=O)NC1CCN(C(=O)OCc2ccccc2)CC1 [Example 32, 4-{[3-(2-Chloro-4-fluorophenylcarbamoyl)-5-methylpyrazole-1-carbonyl]amino}-piperidine-1-carboxylic acid benzyl ester] | 0.66
7 | Cc1cc(C(=O)Nc2ccc(F)cc2Cl)nn1C(=O)NCCc1cccs1 [Example 30, 5-Methylpyrazole-1,3-dicarboxylic acid 3-[(2-chloro-4-fluorophenyl)-amide] 1-[(2-thien-2-ylethyl)-amide]] | 0.71
8 | CCOC(=O)CNC(=O)n1nc(C(=O)Nc2ccc(F)cc2Cl)cc1C [Example 31, {[3-(2-Chloro-4-fluorophenylcarbamoyl)-5-Methylpyrazole-1-carbonyl]-amino}-acetic acid ethyl ester] | 0.63
